From PubChem BioAssay (NCI)
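In this assay, cells in 96-well plates receive the compound at five concentrations for 48 hours. Endpoints are linearly interpolated between the surrounding concentrations. GI50 = concentration required for 50% inhibition of growth. TGI is the concentration that stops growth completely.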

Experiments:
Assay in all cases: NCI tumour cell line growth inhibition, 48 h
SNB-78 CNS = system: SNB-78 CNS
KM20L2 colon = system: KM20L2 colon
U251 CNS = system: U251 CNS
RXF 393 renal = system: RXF 393 renal
LXFL 529 NSCLC = system: LXFL 529 NSCLC
DMS 114 small cell lung = system: DMS 114 small cell lung
M19-MEL melanoma = system: M19-MEL melanoma
HCT-116 colon = system: HCT-116 colon
786-0 renal = system: 786-0 renal
MDA-N = system: MDA-N
HS 578T breast = system: HS 578T breast
BT-549 breast = system: BT-549 breast
DMS 273 small cell lung = system: DMS 273 small cell lung
DLD-1 colon = system: DLD-1 colon
SN12K1 renal = system: SN12K1 renal
P388/ADR leukemia = system: P388/ADR leukemia
P388 leukemia = system: P388 leukemia
HOP-18 NSCLC = system: HOP-18 NSCLC
XF 498 CNS = system: XF 498 CNS

| SMILES | TGI (SNB-78 CNS) [µM] | TGI (KM20L2 colon) [µM] | GI50 (U251 CNS) [µM] | TGI (U251 CNS) [µM] | TGI (RXF 393 renal) [µM] | TGI (LXFL 529 NSCLC) [µM] | TGI (DMS 114 small cell lung) [µM] | TGI (M19-MEL melanoma) [µM] | TGI (HCT-116 colon) [µM] | TGI (786-0 renal) [µM] | TGI (MDA-N) [µM] | TGI (HS 578T breast) [µM] | TGI (BT-549 breast) [µM] | TGI (DMS 273 small cell lung) [µM] | TGI (DLD-1 colon) [µM] | TGI (SN12K1 renal) [µM] | TGI (P388/ADR leukemia) [µM] | TGI (P388 leukemia) [µM] | TGI (HOP-18 NSCLC) [µM] | TGI (XF 498 CNS) [µM] |
| --- | --- | --- | --- | --- | --- | --- | --- | --- | --- | --- | --- | --- | --- | --- | --- | --- | --- | --- | --- | --- |
| CC(C)C(=O)CC(c1ccc(Cl)cc1)N1N=C(C(C)C)CC1c1ccc(Cl)cc1 (configuration not stated) | > 100 | > 100 | 53.3 | > 100 | > 100 | > 100 | > 100 | > 55.6 | > 100 |  |  |  |  |  |  |  |  |  |  |  |
| O=C(O)CCc1nc2ccccc2[nH]1 |  |  |  | > 100 | > 100 |  |  |  | > 100 | > 100 | > 100 | > 100 | > 100 |  |  |  |  |  |  |  |
| O=C(O)c1cc(=O)c2c(OCC(O)COc3cccc4oc(C(=O)O)cc(=O)c34)cccc2o1 |  |  |  | > 100 | > 100 |  |  |  | > 100 | > 100 | > 100 | > 100 | > 100 |  |  |  |  |  |  |  |
| C/C(=N\NC(=S)NCCCCNC(=S)N/N=C(\C)c1ccccn1)c1ccccc1 |  |  |  | 15.6 | > 23.1 |  |  |  | 81.5 |  | > 100 | > 100 | 29.5 |  |  |  |  |  |  |  |
| COc1ccc(C(O)(c2ccccc2)c2nccc3ccccc23)cc1 (configuration not stated) |  |  |  | > 100 | 44.2 |  |  |  | > 100 | > 100 | > 100 | > 100 | > 100 |  |  |  |  |  |  |  |
| COc1ccc(-c2cc(-c3ccc(O)cc3O)c(C#N)c(=O)[nH]2)cc1 |  |  |  | 41 | 35.4 |  |  |  | 38.7 | 40.9 | 32.7 | 48.1 | 55.9 |  |  |  |  |  |  |  |
| NNC(=O)CCSc1ccccc1 |  |  |  | > 100 | > 100 |  |  |  | > 100 | > 100 | > 100 | > 100 | > 100 |  |  |  |  |  |  |  |
| COc1cc2c(cc1OCCCOS(C)(=O)=O)N=C[C@@H]1CCCN1C2=O |  |  |  | > 100 | > 100 |  |  |  | > 100 | > 100 |  | > 100 |  |  |  |  |  |  |  |  |
| COc1cc2cc(C(=O)Nc3cc4n(n3)-c3ccccc3C4)[nH]c2c(OC)c1OC |  |  |  | 22.7 | 50 |  |  |  | 9.65 | 17.8 | 8.52 | 16.4 | 3.57 |  |  |  |  |  |  |  |
| Cc1[nH]c(=O)[nH]c(=O)c1/C=C/C(=O)NC(CO)CS(=O)Cc1ccccc1 (configuration not stated) | > 300 | > 300 |  | > 300 | > 300 |  | > 300 | > 300 | > 300 |  |  |  |  | > 300 | > 300 | > 300 | > 300 | > 300 | > 300 | > 300 |
| O=c1/c(=C/c2ccc([N+](=O)[O-])o2)sc2n1[C@@H](c1ccc(Cl)cc1)C=C(c1cc(F)c(Cl)cc1Cl)N=2 |  |  |  | 21.7 | 28.5 |  |  |  | 18.3 | 20.7 | 23.3 | > 100 | 28.7 |  |  |  |  |  |  |  |
| Cc1ccc([N+](=O)[O-])cc1S(=O)(=O)Nc1ccc(C2=NOC(c3cccs3)C2)cc1 (configuration not stated) |  |  |  |  | 22.4 |  |  |  | 28.1 | 37.7 | 10.4 | 83 | 41 |  |  |  |  |  |  |  |
| N#CCCN(CCC#N)c1ccc(/C=C(\NC(=O)c2cc([N+](=O)[O-])ccc2Cl)C(=O)Nc2ccccc2)cc1 | > 100 | > 100 |  | > 100 | > 100 | > 100 | > 100 | > 100 | > 100 |  |  |  |  | > 100 | > 100 |  |  |  | > 100 | > 100 |
| c1ccc(C(NC2=NCCO2)c2ccccc2)cc1 |  |  |  | > 10 | > 10 |  |  |  | > 10 |  | > 10 | > 10 |  |  |  |  |  |  |  |  |
| Cc1c(Cl)nc(Cl)nc1Cl |  |  |  | 3.18 | 4.07 |  |  |  | 3.95 | 3.7 | 6.85 | 8.31 | 10.2 |  |  |  |  |  |  |  |
| Cn1ccc(C(=O)NCCN(CCNC(=O)c2ccn(C)c(=O)c2O)CCNC(=O)c2ccn(C)c(=O)c2O)c(O)c1=O |  |  |  | > 100 | > 100 |  |  |  |  |  | > 100 | > 100 | > 100 |  |  |  |  |  |  |  |
| CC(=O)O[C@@H]1C(=O)N(c2ccccc2)[C@@H]1c1cc2ccccc2c2ccccc12 |  |  |  | > 100 | 62.6 |  |  |  | 91 | > 100 | > 100 | > 100 |  |  |  |  |  |  |  |  |
| CCOC(=O)C(Cc1cn(C(C)=O)c2ccccc12)P(=O)(OCC)OCC (configuration not stated) |  |  |  | > 100 |  |  |  |  | > 100 |  | > 100 | > 100 |  |  |  |  |  |  |  |  |
| CCCn1cc2c(SC)nc(SC)nc2n1 | > 100 |  |  | > 100 | > 100 |  | > 100 |  | > 100 |  |  |  |  | > 100 | > 100 |  |  |  | > 100 | > 100 |
